This passage reports melting point results from patent US6380218B1, “Nicotinamide derivatives” (Pfizer Inc, priority 1997, dated 2002).

The structures appear in SMILES notation. Counter-ions that a name gives are not always drawn.

In turn, `O=C(NCc1ccc(N2CCC2)cc1)c1cccnc1Oc1ccc(F)cc1` [Example 87, N-(4-Azetidin-1-yl-benzyl)-2-(4-fluoro-phenoxy)-nicotinamide] returned a melting point of 128 to 129 °C. The compound `NS(=O)(=O)N1CCC(CNC(=O)c2cccnc2Oc2ccc(F)cc2)CC1` [Example 194, 2-(4-Fluoro-phenoxy)-N-(1-sulfamoyl-piperidin-4-ylmethyl)-nicotinamide] came in with a melting point of 225 to 226 °C. Compound `Cc1ccc(CNC(=O)c2cccnc2Oc2cccnc2)o1` [Example 19, N-(5-Methyl-furan-2-ylmethyl)-2-(pyridin-3-yloxy)-nicotinamide] displayed a melting point of 65 to 67 °C. Consider `O=C(NCC1CC1)c1cccnc1Oc1cncc(Cl)c1` [Example 98, 2-(5-Chloro-pyridin-3-yloxy)-N-cyclopropylmethyl-nicotinamide], for which the melting point fell in the range of 105 to 107 °C. The same measure for `Cc1cnc(CNC(=O)c2cccnc2Oc2ccc(F)cc2)cn1` [Example 209, 2-(4-Fluoro-phenoxy)-N-(5-methyl-pyrazin-2-ylmethyl)-nicotinamide]: 159 °C; for `Cc1ccc(C(C)NC(=O)c2cccnc2Oc2cccnc2)s1` (stereo not drawn) [Example 17, N-[1-(5-Methyl-thiophen-2-yl)-ethyl]-2-(pyridin-3-yloxy)-nicotinamide]: 162 to 164 °C; for `O=C(CCc1ccc(OC(F)(F)F)cc1)c1cccnc1Oc1ccc(F)cc1` [Example 253, 1-[2-(4-Fluoro-phenoxy)-pyridin-3-yl]-3-(4-trifluoromethoxy-phenyl)-propan-1-one]: 79 to 81 °C. Regarding `CC(C)(O)c1ccc(CNC(=O)c2cccnc2Oc2cccc(F)c2)cc1` [Example 202, 2-(3-Fluoro-phenoxy)-N-[4-(1-hydroxy-1-methyl-ethyl)-benzyl]-nicotinamide], the melting point lay in the range of 106 to 108 °C. `O=C1CCN(c2ccc(CNC(=O)c3cccnc3Oc3ccc(F)cc3)cc2)CC1` [Example 92, 2-(4-Fluoro-phenoxy)-N-[4-(4-oxo-piperidin-1-yl)-benzyl]-nicotinamide] displayed a melting point of 138 to 139 °C. Regarding `CC(C)(O)c1ccc(CNC(=O)c2cccnc2Oc2ccc(F)c(C#N)c2)cc1` [Example 243, 2-(3-Cyano-4-fluoro-phenoxy)-N-[4-(1-hydroxy-1-methyl-ethyl)-benzyl]-nicotinamide], the melting point lay within 147 to 149 °C. For `CCc1n[nH]c2ccc(C(NC(=O)c3cccnc3Oc3cccc(C#N)c3)C3CCCCC3)cc12` (stereo not drawn) [Example 117, 2-(3-Cyano-phenoxy)-N-(-cyclohexyl-3-ethyl-1H-indazol-5-ylmethyl)-nicotinamide], the melting point lay within 56 to 58 °C. The same measure for `CC(NC(=O)c1cccnc1Oc1ccc(F)cc1)c1ccc(Br)cc1` (stereo not drawn) [Example 82, N-[1-(4-Bromo-phenyl)-ethyl]-2-(4-fluoro-phenoxy)-nicotinamide]: 120 to 122 °C; for `O=C(NCc1cc(Cl)cs1)c1cccnc1Oc1cccnc1` [Example 21, N-(4-Chloro-thiophen-2-ylmethyl)-2-(pyridin-3-yloxy)-nicotinamide]: 118 to 120 °C. The compound `CCCCCNC(=O)c1cccnc1Oc1cccnc1` [Example 175, N-Pentyl-2-(pyridin-3-yloxy)-nicotinamide] had a melting point of 61 to 62 °C.

Compound `Cc1ccc(CNC(=O)c2cccnc2Oc2cccnc2)cc1` [Example 13, N-(4-Methyl-benzyl)-2-(pyridin-3-yloxy)-nicotinamide] returned a melting point of 91 to 93 °C. Then `CC(C)(C)c1cc(CNC(=O)c2cccnc2Oc2cccnc2)cc(C(C)(C)C)c1O` [Example 34, N-(3,5-Di-tert-butyl-4-hydroxy-benzyl)-2-(pyridin-3-yloxy)-nicotinamide], with 42 to 44 °C; and `CC(C)(O)c1ccc(CC(=O)Nc2cccnc2Oc2ccc(F)cc2)cc1` [Example 203, N-[2-(4-Fluoro-phenoxy)-pyridin-3-yl]-2-[4-(1-hydroxy-1-methyl-ethyl)-phenyl]-acetamide], with 135 to 137 °C; and `CC(C)(O)C1CCC(CNC(=O)c2cccnc2Oc2ccc(F)c(C#N)c2)CC1` (stereo not drawn) [Example 322, 2-(3-Cyano-4-fluoro-phenoxy)-N-[4-(1-hydroxy-1-methyl-ethyl)-cyclohexylmethyl]-nicotinamide], with 85 to 88 °C.

For the compound `O=C(NCc1ccccc1Cl)c1cccnc1Oc1cccnc1` (as salt: HCl) [Example 31, N-(2-Chloro-benzyl)-2-(pyridin-3-yloxy)-nicotinamide], the melting point lay within 174 to 176 °C.

`O=C(NCc1ccc(N2CCOCC2)cc1)c1cccnc1Oc1ccc(F)cc1` [Example 91, 2-(4-Fluoro-phenoxy)-N-(4-morpholin-4-yl-benzyl)-nicotinamide] displayed a melting point of 163 to 165 °C. The same measure for `CSc1cccc(Oc2ncccc2C(=O)NCc2ccc(C(C)(C)O)cc2)c1` [Example 206, N-[4-(1-Hydroxy-1-methyl-ethyl)-benzyl]-2-(3-methylsulfanyl-phenoxy)-nicotinamide]: 107 to 109 °C; for `Cc1ccc(CNC(=O)c2cccnc2Oc2cncc(Cl)c2)cc1` [Example 48, 2-(5-Chloro-pyridin-3-yloxy)-N-(4-methyl-benzyl)-nicotinamide]: 119 to 121 °C; for `CC(=O)c1ccc(Oc2ncccc2C(=O)NCc2ccc(C(C)(C)O)cc2)cc1` [Example 236, 2-(4-Acetyl-phenoxy)-N-[4-(1-hydroxy-1-methyl-ethyl)-benzyl]-nicotinamide]: 95 to 97 °C. `O=C(NCC(O)c1ccccc1)c1cccnc1Oc1cccc(Cl)c1` (stereo not drawn) [Example 133, 2-(3-Chloro-phenoxy)-N-(2-hydroxy-2-phenyl-ethyl)-nicotinamide] returned a melting point of 118 to 119 °C. The compound `CC(=O)c1cccc(Oc2ncccc2C(=O)NCC2CCC(C(C)(C)O)CC2)c1` (stereo not drawn) [Example 242, 2-(3-Acetyl-phenoxy)-N-[4-(1-hydroxy-1-methyl-ethyl)-cyclohexylmethyl]-nicotinamide] showed a melting point of 105 to 107 °C. Turning to `CN(C)c1ccc(CNC(=O)c2cccnc2Oc2ccc(F)cc2)cc1` [Example 247, N-[[4-(Dimethylamino)phenyl]methyl]-2-(4-fluorophenoxy)-3-pyridinecarboxamide], the melting point lay within 99.5 to 101.5 °C. Take `O=C(NCc1ccc(N2CC(O)C2)cc1)c1cccnc1Oc1ccc(F)cc1` [Example 88, 2-(4-Fluoro-phenoxy)-N-[4-(3-hydroxy-azetidin-1-yl)-benzyl]-nicotinamide]: the melting point lay in the range of 157 to 159 °C. The compound `CC(C)(O)[C@H]1CC[C@H](CNC(=O)c2cccnc2Oc2ccc(F)cc2F)CC1` [Example 239, trans-2-(2,4-Difluoro-phenoxy)-N-[4-(1-hydroxy-1-methyl-ethyl)-cyclohexylmethyl]-nicotinamide] yielded a melting point of 92 to 94 °C. The same measure for `O=C(NCc1c(F)cccc1Cl)c1cccnc1Oc1ccc(F)cc1` [Example 5, N-(2-Chloro-6-fluoro-benzyl)-2-(4-fluoro-phenoxy)-nicotinamide]: 115 to 118 °C; for `O=C(NCc1cc2ccccc2s1)c1cccnc1Oc1cncc(Cl)c1` [Example 56, N-Benzo[b]thiophen-2-ylmethyl-2-(5-chloro-pyridin-3-yloxy)-nicotinamide]: 160 to 162 °C; for `CC(=O)c1ccc(CC(=O)Nc2cccnc2Oc2cccnc2)cc1` [Example 186, 2-(4-Acetyl-phenyl)-N-[2-(pyridin-3-yloxy)-pyridin-3-yl]-acetamide]: 110 to 112 °C. On to `CC(C)(O)[C@H]1CC[C@H](CNC(=O)c2cccnc2Oc2ccc(F)c(F)c2)CC1` [Example 240, trans-2-(3,4-Difluoro-phenoxy)-N-[4-(1-hydroxy-1-methyl-ethyl)-cyclohexylmethyl]-nicotinamide], for which the melting point lay within 80 to 82 °C.

`O=C(O)c1cc2cc(CNC(=O)c3cccnc3Oc3ccc(F)cc3)ccc2[nH]1` [Example 165, 5-({[2-(4-Fluoro-phenoxy)-pyridine-3-carbonyl]-amino}-methyl)-1H-indole-2-carboxylic acid] displayed a melting point of 236 to 238 °C. In the case of `Cc1ccc(CNC(=O)c2cccnc2Oc2cncc(Cl)c2)s1` [Example 52, 2-(5-Chloro-pyridin-3-yloxy)-N-(5-methyl-thiophen-2-ylmethyl)-nicotinamide], the melting point was in the range of 81 to 83 °C. The same measure for `CC[C@@H](C)NC(=O)c1cccnc1Oc1cccnc1` [Example 177, (R)-N-sec-Butyl-2-(pyridin-3-yloxy)-nicotinamide]: 55 to 56 °C; for `CC(C)(O)c1ccc(CNC(=O)c2cccnc2Oc2cccc([N+](=O)[O-])c2)cc1` [Example 107, N-[4-(1-Hydroxy-1-methyl-ethyl)-benzyl]-2-(3-nitro-phenoxy)-nicotinamide]: 43 to 45 °C.

Consider `CC(NC(=O)c1cccnc1Oc1cccnc1)c1ccc(Cl)s1` (stereo not drawn) [Example 14, N-[1-(5-Chloro-thiophen-2-yl)-ethyl]-2-(pyridin-3-yloxy)-nicotinamide], for which the melting point lay within 74 to 76 °C.

As for `O=C(NCc1ccncc1)c1cccnc1Oc1cccnc1` [Example 208, N-Pyridin4-ylmethyl-2-(pyridin-3-yloxy)-nicotinamide], the melting point was 142 to 144 °C.

Take `CC(NC(=O)c1cccnc1Oc1cncc(Cl)c1)c1ccc(Cl)s1` (stereo not drawn) [Example 49, 2-(5-Chloro-pyridin-3-yloxy)-N-[1-(5-chloro-thiophen-2-yl)-ethyl]-nicotinamide]: the melting point lay within 110 to 112 °C. For the compound `CC(C)(O)c1ccc(CNC(=O)c2cccnc2Oc2cccnc2)cc1Cl` [Example 38, N-[3-Chloro-4-(1-hydroxy-1-methyl-ethyl)-benzyl]-2-(pyridin-3-yloxy)-nicotinamide], the melting point fell in the range of 139 to 141 °C. The same measure for `CC(=O)c1ccc(CNC(=O)c2cccnc2Oc2ccc(F)cc2)cc1` [Example 285, N-[4-Acetyl-benzyl)-2-(4-fluoro-phenoxy)-nicotinamide]: 106 to 108 °C. Compound `O=C(NCC1CCC(O)CC1)c1cccnc1Oc1ccc(F)cc1` (stereo not drawn) [Example 288, 2-(4-Fluoro-phenoxy)-N-(4-hydroxy-cyclohexylmethyl)-nicotinamide] came in with a melting point of 110 to 112 °C.
